Reference: patent US9034907B2, “Inhibitors of glutaminyl cyclase” (Probiodrug AG, priority 2007, dated 2015)

Columns and labels:
glutaminyl cyclase (QC) = glutaminyl cyclase (QC) (Homo sapiens (Human), UniProt Q16769); test: QC inhibitor assay (fluorometric / spectrophotometric QC activity assay with inhibitor added); conditions: 30° C.
Chain of glutaminyl cyclase (QC) (Q16769 29-361): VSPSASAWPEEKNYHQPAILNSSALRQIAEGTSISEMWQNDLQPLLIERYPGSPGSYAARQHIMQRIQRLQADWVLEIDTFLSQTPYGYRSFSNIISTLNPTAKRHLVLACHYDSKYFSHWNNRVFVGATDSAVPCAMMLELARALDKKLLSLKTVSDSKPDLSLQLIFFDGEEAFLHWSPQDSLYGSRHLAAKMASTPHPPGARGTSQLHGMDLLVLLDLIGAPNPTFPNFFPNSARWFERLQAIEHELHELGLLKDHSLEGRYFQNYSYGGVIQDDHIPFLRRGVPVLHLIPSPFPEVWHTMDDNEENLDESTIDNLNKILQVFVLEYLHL
Procedure: All measurements were performed with a BioAssay Reader HTS-7000Plus for microplates (Perkin Elmer) at 30° C. QC activity was evaluated fluorometrically using H-Gln-βNA. The samples consisted of 0.2 mM fluorogenic substrate, 0.25 U pyroglutamyl aminopeptidase (Unizyme, Hørsholm, Denmark) in 0.2 M Tris/HCl, pH 8.0 containing 20 mM EDTA and an appropriately diluted aliquot of QC in a final volume of 250 μl. Excitation/emission wavelengths were 320/410 nm. The assay reactions were initiated by addition of glutaminyl cyclase. QC activity was determined from a standard curve of β-naphthylamine under assay conditions. One unit is defined as the amount of QC catalyzing the formation of 1 μmol pGlu-βNA from H-Gln-βNA per minute under the described conditions.
In a second fluorometric assay, QC was activity determined using H-Gln-AMC as substrate. Reactions were carried out at 30° C. utilizing the NOVOStar reader for microplates (BMG labtechnologies). […] The kinetic data were evaluated using GraFit software.
Samples consisted of the respective QC substrate, 0.3 mM NADH, 14 mM α-Ketoglutaric acid and 30 U/ml glutamate dehydrogenase in a final volume of 250 μl. […] All samples were measured at 30° C., using either the [sequence]luor Plus or the Sunrise (both from TECAN) reader for microplates. Kinetic data was evaluated using GraFit software. […]

Row | melting point | further results | Compound
1 | 225 to 227 °C |  | Cc1csc2c(=O)n(CCCn3ccnc3)c(=S)[nH]c12
2 | 118 to 120 °C |  | O=c1c2c3c(sc2[nH]c(=S)n1CCCn1ccnc1)CCCC3
3 |  | IC50 (glutaminyl cyclase (QC); QC inhibition): 121 µM | O=c1c2ccccc2[nH]c(=S)n1-c1ccc2[nH]cnc2c1 [Example 43, 3-(1H-benzo[d]imidazol-5-yl)-2,3-dihydro-2-thioxo-quinazolin-4(1H)-one]
4 |  | Ki (glutaminyl cyclase (QC); competitive inhibition fit of progress curves): 0.3 µM | O=c1c2ccccc2[nH]c(=S)n1CCCn1ccnc1 [Example 28, 2,3-dihydro-3-(3-(1H-imidazol-1-yl)propyl)-2-thioxoquinazolin-4(1H)-one]
